Assay results reported in the METLIN SMRT retention time set (Domingo-Almenara et al. 2019).

Experiment: gradient 5% acetonitrile 3 min, to 50% in 2 min, to 85% in 15 min, held 3 min, 100 µL/min
Conditions: column: Zorbax Extend-C18 2.1 x 50 mm; eluents: water / acetonitrile, 0.1% formic acid
Method in brief: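 Pure standards were run in mixtures of ~100 molecules by HPLC coupled to a quadrupole time-of-flight mass spectrometer. The column was a Zorbax Extend-C18 (2.1 × 50 mm, 1.8 μm) at 100 μL/min, with water and acetonitrile each containing 0.1% formic acid, in positive and negative ionization mode. Dead and dwell volumes were 40 μL and 900 μL. Retention time was taken from computationally picked adduct peaks, each manually inspected, with data collected over 3 months.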

SMILES	RP-LC retention time
O=C(NC1CCCCC1)c1nnc(-c2ccc(S(=O)(=O)N3CCCCC3)cc2)o1	1040 s
CC(C)N1CCC2(CC1)CN(C(=O)NCc1ccco1)Cc1ccccc1O2	650 s
Cc1nc2cccnc2n1C1CCN(C(=O)Nc2ccc(Cl)cc2)CC1	659 s
CC(C)N1CCN(C(=O)c2cnc(-c3ccccc3)nc2-c2ccncc2)CC1	626 s
COc1cccc(-n2cc(C(=O)OCC(=O)OC(C)(C)C)c3ccccc3c2=O)c1	1140 s
CC1=NN(c2nc3ccccc3[nH]2)C(=O)C1Cc1ccccc1 (stereo not drawn)	796 s
COc1ccc(CCNC(=O)c2c(N3CCCC3=O)c3cc(OC)ccc3n2C)c(OC)c1	877 s
Cc1ccc(NC(=O)c2cccc([N+](=O)[O-])c2)c(C)c1	830 s
Cc1ccc(N2C(=O)C3N=NN(Cc4nc(-c5ccc(Br)cc5)no4)C3C2=O)cc1C (stereo not drawn)	1130 s
O=C(c1cnccn1)N1CCN(c2cc(-c3ccc(Cl)cc3)[nH]n2)CC1	722 s
O=C(Cn1ccc2ccc(N3CCOCC3)nc21)N1CCN(c2ccccn2)CC1	616 s
Cc1nc(CNC(=O)C2CCN(C(=O)Nc3ccc(Br)cc3F)CC2)cs1	699 s
Cc1cccc2c(=O)n(C3CCN(S(=O)(=O)c4cc(F)cc(F)c4)CC3)cnc12	1000 s
Cc1sc2ncnc(SCC(=O)Nc3nc(-c4ccccc4)ns3)c2c1C	1080 s
O=C(COc1ccc(F)cc1)Nc1cnc(-c2cccnc2)nc1	707 s
Cc1nc(-c2cn(C(C)C)c3ncccc23)sc1C(=O)NCc1ccc2c(c1)OCO2	980 s
O=C(Cn1cnc2c(nc3n2CCCCC3)c1=O)Nc1ccc2c(c1)OCCO2	659 s
Cc1cc(C)c2c(N3CCCC3)nc(C(=O)Nc3ccccc3C)nc2n1	671 s
O=C(Nc1nnc(-c2ccsc2)o1)c1ccc2nsnc2c1	698 s
CCN1C(=O)COc2ccc(-c3noc(C4CC(=O)N(c5ccc(C)c(C)c5)C4)n3)cc21 (stereo not drawn)	992 s
NC(=O)N1CCC(CC(=O)N2CCC([C@H]3c4ncc(Br)cc4CCc4cc(Cl)cc(Br)c43)CC2)CC1	1040 s
Cc1ccc(-c2noc(CN3N=NC4C(=O)N(c5ccc(C)c(C)c5)C(=O)C43)n2)cc1C (stereo not drawn)	1140 s
Cn1c(=O)c(N2CCC(NC(=O)NCc3ccc(F)cc3)CC2)nc2ccccc21	814 s
CCCn1ccc2oc(C)c(C(=O)NCc3ccc(Cl)cc3)c2c1=O	814 s
C=CCN1C(=O)COc2ccc(-c3csc(NC(=O)c4ccco4)n3)cc21	882 s

SMILES	RP-LC retention time
O=C(CCC1CCCC1)NCCC1CCN(C(=O)Nc2ccc(F)cc2)CC1	887 s
Cc1cc2n(n1)CCCN2C(=O)CCC(=O)N1CCN(c2ccc(Cl)cc2)CC1	758 s
Fc1ccc(-c2nnc(Cc3nc(-c4ccc(Br)cc4)no3)o2)cc1	1110 s
Fc1ccccc1-c1ccc(CNCc2ccccn2)o1	655 s
O=C(NCCOc1ccc(F)cc1)NCc1ccc(Cl)cc1	850 s
O=C(NCc1cccnc1-c1ccc(F)cc1)c1cc(F)ccc1Cl	700 s
CCN(CC)C(=O)C1CCN(S(=O)(=O)Cc2ccccc2)CC1	759 s
CCOc1cc(=O)n2c(c1C(=O)Nc1ccc(Br)cc1F)CCCC2	790 s
Fc1ccc(Br)cc1-c1nc2ccc(Cl)cn2c1Nc1ccc2c(c1)OCO2	945 s
O=C(C1CCCN(c2cnc3nccnc3c2)C1)N1CCCCCC1 (stereo not drawn)	692 s
CCC1CCCCN1c1nc(-c2ccc([N+](=O)[O-])cc2)nc2ccccc12 (stereo not drawn)	1030 s
Cc1ccc2nc(-c3ccc(O)cc3)c(Nc3ccccc3C)n2c1	678 s
CCN1CCN(S(=O)(=O)c2cc(-c3nnc(C4CC4)o3)co2)CC1	587 s
CCc1ccc(NC(=O)N2CCC(c3nc(C(=O)N4CCCC4)c(C)o3)CC2)cc1	870 s
CCN1C(=O)CCc2cc(NS(=O)(=O)c3ccccc3Cl)ccc21	751 s
COc1ccc(CCC(=O)NCC(=O)Nc2nc3ccccc3[nH]2)cc1	639 s
Cn1ccnc1N1CCN(C(=O)CSCc2ccccc2)CC1	571 s
Cc1cccc(CNC(=O)C2(C)Cn3cnc(C(=O)N(C)Cc4ccccc4)c3C(=O)N2C2CC2)c1 (stereo not drawn)	816 s
Cc1cc(C(=O)NCCc2c[nH]c3ccccc23)c2c(C)nn(-c3cccc(Cl)c3C)c2n1	1050 s
COC[C@@H]1CN(S(=O)(=O)c2cccc(F)c2)C[C@H]1c1ccncc1	649 s
Cc1ccnc(N2CCCC(C(=O)NCC3CCN(Cc4cccc(Cl)c4)CC3)C2)n1 (stereo not drawn)	604 s
O=C(c1ccco1)N1CCN(c2ccc3cc(S(=O)(=O)N4CCOCC4)ccc3n2)CC1	661 s
O=C(NCc1cccs1)C1CCCN(S(=O)(=O)c2c[nH]c(C(=O)N3CCCCCC3)c2)C1 (stereo not drawn)	812 s
COc1cccc(S(=O)(=O)N2CCC(CN3CCCC(C)C3)CC2)c1 (stereo not drawn)	662 s
O=C(C1CCN(c2nc(-c3ccc(Cl)cc3)no2)CC1)N1CCN(c2ncccn2)CC1	968 s

Now from value to compound:

RP-LC retention time	SMILES
815 s	CCNC(=O)N(CCOC)CC(=O)N1CCc2sccc2C1COc1ccccc1 (stereo not drawn)
732 s	Cc1ccn2cc(-c3cccc(NS(=O)(=O)c4cc(C)c(C)cc4C)c3)nc2c1
817 s	Cn1cccc1C(=O)N1CCC2(CC1)NC(=O)N(Cc1ccc(Cl)cc1)C2=O
852 s	O=C(CCC1CCN(S(=O)(=O)c2ccccc2)CC1)NC1CCCC1
1000 s	CCN1C(SCC(=O)N(C)c2ccccc2)=NS(=O)(=O)c2ccccc21
668 s	COc1cccc(NC(=O)Cn2nc3n(c2=O)CCCCC3)c1
1140 s	Cc1ccccc1-c1nc(C2CC(=O)N(c3ccc(F)c(Cl)c3)C2)no1 (stereo not drawn)
846 s	O=C(NCC1CCCCC1)c1cccc(CN2C(=O)C3CCCN3C(=O)c3ccccc32)c1 (stereo not drawn)
698 s	COc1ccc(N2CCN(C(=O)[C@@H]3[C@H](c4cc(OC)c(OC)c(OC)c4)c4cc5c(cc4[C@H](O)[C@H]3CO)OCO5)CC2)cc1
1180 s	CC(C)(C)c1csc(-c2csc(S(=O)(=O)Nc3ccccc3)c2)n1
508 s	Cc1cnc(-c2cccnc2)n1CC1CNC1
820 s	Cc1ccc(CNC(=O)c2nnc(-c3ccc(S(=O)(=O)N4CCOCC4)cc3)o2)o1
1000 s	Cc1noc(C)c1CCNC(=O)c1cc2c(-c3cccs3)nn(-c3ccccc3)c2n1C
604 s	NC(=O)c1cc(C(N)=O)nc(Cl)n1
845 s	CCOc1ccc(NC(=O)Cn2c(=O)nc(N3CCCC(C)C3)c3ccccc32)cc1 (stereo not drawn)
571 s	OC1(c2ccccn2)CCOC2(CCN(Cc3cccc(F)c3F)CC2)C1 (stereo not drawn)
670 s	Cc1sc(-c2ccn[nH]2)cc1NC(=O)c1ccc2nc[nH]c2c1
708 s	CCN(CC)C(=O)C1CCCN(c2ncnc3c2nc2n3CCCCC2)C1 (stereo not drawn)
1050 s	Cc1nn(-c2ccccc2)c(C)c1S(=O)(=O)N1CCC(C(=O)NC2CCCCCCC2)CC1

RP-LC retention time	SMILES
711 s	CNC(=O)N1CCCN(C2=NS(=O)(=O)C(c3ccc(C)c(C)c3)=C2C)CC1
1070 s	Fc1cccc(-c2nnc(Cc3nc(-c4cccc(Cl)c4)no3)o2)c1
659 s	O=C(c1cc(-c2ccccn2)n[nH]1)N1CCN(C(=O)C2CCCCC2)CC1
853 s	O=C(Nc1ccc2c(c1)OCCO2)N1CC(c2nc(CCOCc3ccccc3)no2)C1
770 s	Cc1sc(NC(=O)c2ccco2)nc1-c1ccc2c(c1)NC(=O)CO2
1120 s	Cc1ccc(-c2ccc3nn(Cc4nc(-c5ccc(OC(F)(F)F)cc5)no4)c(=O)n3n2)cc1
848 s	Cc1csc(-c2ccc(CNC(=O)Cc3cccc(F)c3)cc2)n1
678 s	CCc1nc(-c2ccnc(N3CCOCC3)c2)no1
1190 s	COc1cccc(N2CCN(S(=O)(=O)c3cc(-c4csc(C)n4)ccc3C)CC2)c1
864 s	COCCCn1cc(C(=O)Nc2cccc(C)n2)c2nn(-c3ccccc3)c(=O)c-2c1
1010 s	O=C(NCc1ccc(F)cc1Cl)c1cc(C2CC2)n2nccc2n1
797 s	CCOC(=O)c1c(C)[nH]c(C)c1S(=O)(=O)N1CCC(C(=O)Nc2cccc(C#N)c2)CC1
887 s	CCC(=O)N1CCc2ccccc2C1C(=O)NCc1ccc(Br)cc1 (stereo not drawn)
548 s	CCOc1ccccc1NS(=O)(=O)c1cc2c3c(c1)CCC(=O)N3CCC2
613 s	CCc1nccn1Cc1noc(-c2ccccc2F)n1
695 s	CN1c2ccccc2C(=O)NC12CCN(C(=O)Nc1ccccc1F)CC2
741 s	Cc1ccc(-c2ncccc2CNS(=O)(=O)Cc2cccc(Cl)c2)cc1
587 s	O=C(CCc1c(-c2ccc(F)cc2)nc2ccccn12)NC1CC1
658 s	COCCNc1ncc(C(=O)O)c(-c2ccc(OC)cc2)n1
